Source: US20250099420A1, “SMALL MOLECULE MODULATORS OF GPR139 COMPLEX” (University of Florida Research Foundation, Incorporated, priority 2022, published 2025)

What was measured:
parental HEK cells [1] = test: HEK parental Antagonist Counterscreen Assay (non-transfected cells, acetylcholine control); assay type: cell-based; details: for EC50: Homo sapiens, HEK293, acetylcholine as control, scientific notation, molarity
Description: C. […] The HEK parental counterscreen utilized the same cells but not transfected with the plasmid. The agonist and antagonist modes were run the same way as the primary screen but acetylcholine was used in place of GPR139 agonist as the control compound.
The HEK parental counterscreen utilized the same cells but not transfected with the plasmid. The antagonist modes assays utilized the cells being plated in the 1536 well plate overnight in growth media prior to dye loading in PDL coated plates and acetylcholine was used in place of GPR139 agonist as the control compound.
The HEK parental counterscreen utilized the same cells but not transfected with the plasmid. Acetylcholine was used in place of GPR139 agonist as the control compound. The cells were plated overnight, similar to the HEK antagonist counterscreen protocol.
The HEK parental counterscreens utilized the same cells but not transfected with the plasmid. Acetylcholine was used in place of GPR139 agonist as the control compound. The cells were plated overnight, similar to the HEK antagonist counterscreen protocol.
For each test compound, percent activation was plotted against compound concentration. A four parameter equation describing a sigmoidal dose-response curve was then fitted with adjustable baseline using Assay Explorer software (Symyx Technologies Inc.).

GPR139 [2] = target: T1, GPR139 (Homo sapiens, UniProt Q6DWJ6); test: GPR139 Agonist titration / agonist counterscreen assay (calcium detection, HEK-GPR139 cells); assay type: cell-based; parameters: expressed in transfected cells; host or cells: HEK Aequorin cells, Maxcyte transient transfection; details: for Averaged Max % Response (±St. Dev.): activity relative to known control
T1 sequence (Q6DWJ6 1-353): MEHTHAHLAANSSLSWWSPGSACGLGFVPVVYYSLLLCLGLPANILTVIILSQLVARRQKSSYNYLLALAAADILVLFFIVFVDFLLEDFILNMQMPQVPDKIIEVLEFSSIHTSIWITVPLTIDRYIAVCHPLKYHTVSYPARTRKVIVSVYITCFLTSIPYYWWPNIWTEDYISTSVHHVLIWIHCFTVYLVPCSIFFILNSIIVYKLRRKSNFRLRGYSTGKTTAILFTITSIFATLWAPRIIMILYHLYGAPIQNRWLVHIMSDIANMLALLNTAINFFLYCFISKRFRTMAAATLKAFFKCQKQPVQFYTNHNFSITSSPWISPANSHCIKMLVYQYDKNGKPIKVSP
Method: GPR activity was assessed using a calcium detection assay. […] Negative control samples were treated with DMSO. […] Intracellular calcium was measured using Calcium 5.

GPR139 [3] = target: T1, GPR139; test: GPR139 Antagonist titration assay (calcium detection, HEK-GPR139 cells, vs EC80 of S-JNJ-63533054); details: for GPR139 Antagonist Activity Averaged Max % Response (±St. Dev.): activity relative to known control; for GPR139 Antagonist Activity Lipophilic Efficiency (logD): based on logD; for GPR139 Antagonist Activity Lipophilic Efficiency (logP): based on logP; for GPR139 Antagonist Activity Hill Slope: fitted dose-response curve
parental HEK cells [4] = test: HEK parental Agonist Counterscreen Assay (non-transfected cells); assay type: cell-based; details: for Averaged Max % Response (±St. Dev.): activity relative to known control
Description: The high control for the agonist counterscreen was Forskolin not acetylcholine.

[5] = agonist counterscreen of the antagonists
[6] = agonist counterscreen of the antagonists, scientific notation, molarity, read-out: GRP139 Agonist activity EC50
[7] = Homo sapiens, HEK293, HEK Agonist Activity section of Table 4 (parental HEK counterscreen)
[8] = GPR139 Agonist Activity, based on logD
[9] = GPR139 Agonist Activity, based on logP
[10] = GPR139 Agonist Activity, fitted dose-response curve
[11] = GPR139 Agonist Activity, ligand efficiency
[12] = GPR139 Agonist Activity, values printed in E-notation without unit, read-out: EC50
[13] = GPR139 Agonist Activity, HEK-GPR139 cells, read-out: EC50
[14] = HEK Agonist Activity section of Table 4 (parental HEK counterscreen)
[15] = Homo sapiens, HEK293, HEK Agonist Activity, parental non-transfected HEK cells

SMILES	Lipophilic Efficiency (logD) (parental HEK cells [4]; HEK Agonist Activity section)	Lipophilic Efficiency (logP) (parental HEK cells [4]; HEK Agonist Activity section)	Averaged Max % Response (±St. Dev.) (GPR139 [2]; GPR139 Agonist Activity) [%]	Lipophilic Efficiency (logD) (GPR139 [2]; [8])	Lipophilic Efficiency (logP) (GPR139 [2]; [9])	Hill Slope (GPR139 [2]; [10])	Efficiency Ligand (GPR139 [2]; [11])	EC50 (GPR139 [2]; [12]) [nM]	Efficiency Ligand (GPR139 [2]; GPR139 Agonist Activity)	Hill Slope (GPR139 [2]; GPR139 Agonist Activity)	Lipophilic Efficiency (logD) (GPR139 [2]; GPR139 Agonist Activity)	Lipophilic Efficiency (logP) (GPR139 [2]; GPR139 Agonist Activity)	EC50 (GPR139 [2]; [13]) [nM]	Averaged Max % Response (±St. Dev.) (parental HEK cells [4]; HEK Agonist Activity section) [%]	EC50 (parental HEK cells [4]; [7]) [nM]	also measured
CC1=NN(Cc2ccc(Cl)cc2Cl)C(=O)C1 [SR-01000043246]																HEK antagonist activity Averaged Max % Response (±St. Dev.) (parental HEK cells [1]): 6.06 ± 11.65%; EC50 (parental HEK cells [1]): > 15300 nM; GRP139 Agonist activity Averaged Max % Response (±St. Dev.) (GPR139 [2]; [5]): 21.98 ± 2.69%; EC50 (GPR139 [2]; [6]): > 15300 nM; EC50 (GPR139 [3]): 3900 nM; GPR139 Antagonist Activity Ligand Efficiency (GPR139 [3]): 0.47; GPR139 Antagonist Activity Averaged Max % Response (±St. Dev.) (GPR139 [3]): 80.83 ± 4.99%; GPR139 Antagonist Activity Lipophilic Efficiency (logD) (GPR139 [3]): 2.61; GPR139 Antagonist Activity Lipophilic Efficiency (logP) (GPR139 [3]): 2.61; GPR139 Antagonist Activity Hill Slope (GPR139 [3]): 1.01
COc1ccc(OC)c(NC2=C(Cl)C(=O)N(c3ccccc3C)C2=O)c1 [SR-01000228964]																HEK antagonist activity Averaged Max % Response (±St. Dev.) (parental HEK cells [1]): 24.51 ± 4.86%; EC50 (parental HEK cells [1]): > 14100 nM; GRP139 Agonist activity Averaged Max % Response (±St. Dev.) (GPR139 [2]; [5]): −2.6E+0 ± 5.18 ^ %; EC50 (GPR139 [2]; [6]): > 14100 nM; EC50 (GPR139 [3]): 2900 nM; GPR139 Antagonist Activity Ligand Efficiency (GPR139 [3]): 0.30; GPR139 Antagonist Activity Averaged Max % Response (±St. Dev.) (GPR139 [3]): 82.24 ± 3.16%; GPR139 Antagonist Activity Lipophilic Efficiency (logD) (GPR139 [3]): 2.79; GPR139 Antagonist Activity Lipophilic Efficiency (logP) (GPR139 [3]): 2.79; GPR139 Antagonist Activity Hill Slope (GPR139 [3]): 1.53
O=C(CCC(=O)OCc1ccc(Br)cc1)Nc1ccc(F)cc1 [SR-01000259336]																HEK antagonist activity Averaged Max % Response (±St. Dev.) (parental HEK cells [1]): 26.21 ± 5.54%; EC50 (parental HEK cells [1]): > 14100 nM; GRP139 Agonist activity Averaged Max % Response (±St. Dev.) (GPR139 [2]; [5]): 6.87 ± 7.17%; EC50 (GPR139 [2]; [6]): > 14100 nM; EC50 (GPR139 [3]): 3700 nM; GPR139 Antagonist Activity Ligand Efficiency (GPR139 [3]): 0.33; GPR139 Antagonist Activity Averaged Max % Response (±St. Dev.) (GPR139 [3]): 90.45 ± 2.75%; GPR139 Antagonist Activity Lipophilic Efficiency (logD) (GPR139 [3]): 1.62; GPR139 Antagonist Activity Lipophilic Efficiency (logP) (GPR139 [3]): 1.62; GPR139 Antagonist Activity Hill Slope (GPR139 [3]): 1.05
N#CCC(=O)c1ccccc1Oc1ccc(F)cc1 [SR-01000308363]																HEK antagonist activity Averaged Max % Response (±St. Dev.) (parental HEK cells [1]): 14.98 ± 11.31%; EC50 (parental HEK cells [1]): > 14300 nM; GRP139 Agonist activity Averaged Max % Response (±St. Dev.) (GPR139 [2]; [5]): 25.24 ± 7.47%; EC50 (GPR139 [2]; [6]): > 14300 nM; EC50 (GPR139 [3]): 5900 nM; GPR139 Antagonist Activity Ligand Efficiency (GPR139 [3]): 0.39; GPR139 Antagonist Activity Averaged Max % Response (±St. Dev.) (GPR139 [3]): 70.81 ± 7.08%; GPR139 Antagonist Activity Lipophilic Efficiency (logD) (GPR139 [3]): 2.11; GPR139 Antagonist Activity Lipophilic Efficiency (logP) (GPR139 [3]): 2.11; GPR139 Antagonist Activity Hill Slope (GPR139 [3]): 1.05
COc1cc(NC(=O)NCCc2ccc3c(c2)CCCN3C)cc(OC)c1 [SR-01000923249]	1.46	1.46	93.59 ± 4.95	3.81	3.81	0.82	0.37	62.9						25.04 ± 3.96	> 14100	
CCN1CCCc2cc(CCNC(=O)Nc3ccccc3)ccc21 [SR-01000923250]	0.79	0.79	67.60 ± 3.63						0.35	0.64	1.87	1.86	1200	−2.96 ± 8.90	> 14100	
CCCC(=O)C1CCC(C(=O)CC2CCC(c3ccc(C(C)O)cc3)C2=O)CC1 (centres unmarked) [SR-01000924775]	3.42	3.42	69.93 ± 11.99						0.31	0.79	4.98	4.98	387	10.92 ± 3.68	> 14100	
Cc1onc(-c2ccccc2Cl)c1C(=O)N1CCC(Cn2ccnc2C)CC1 [SR-01000925002]	2.12	1.88	86.62 ± 3.28						0.31	0.51	3.41	3.17	727	17.46 ± 3.54		EC50 (parental HEK cells [4]; [14]): > 14100 nM
O=C(Cn1ccc2ccccc21)NC1CCN(Cc2ccccc2)CC1 [SR-01000925700]	2.90	1.91	83.76 ± 7.63						0.32	0.44	4.08	3.09	931	10.33 ± 2.07	> 14100	
O=C(Cn1cnc2ccccc21)NCCCn1ccc2ccccc21 [SR-01000926263]	2.29	2.29	84.49 ± 4.10	4.34	4.34	1.10	0.39	127						12.91 ± 4.81	> 14100	
O=C(Cn1ccc2ccccc21)NCCCC(=O)Nc1cccc2cccnc12 [SR-01000926510]	2.07	2.07	89.57 ± 9.18						0.30	0.38	3.52	3.52	490	9.24 ± 7.87	> 14100	
O=C(Cn1ccc2ccccc21)NCCn1cnc(-c2ccccc2)cc1=O [SR-01000926956]			100.27 ± 11.90	5.36	5.36	0.74	0.37	45.1								Lipophilic Efficiency (logD) (parental HEK cells [4]; HEK Agonist Activity): 2.87; Lipophilic Efficiency (logP) (parental HEK cells [4]; HEK Agonist Activity): 2.87; Averaged Max % Response (±St. Dev.) (parental HEK cells [4]; HEK Agonist Activity): −3.24 ± 9.86%; EC50 (parental HEK cells [4]; [15]): > 14100 nM

Second part, led by results:

Lipophilic Efficiency (logD) (parental HEK cells [4]; HEK Agonist Activity section)	Lipophilic Efficiency (logP) (parental HEK cells [4]; HEK Agonist Activity section)	Averaged Max % Response (±St. Dev.) (GPR139 [2]; GPR139 Agonist Activity) [%]	Lipophilic Efficiency (logD) (GPR139 [2]; [8])	Lipophilic Efficiency (logP) (GPR139 [2]; [9])	Hill Slope (GPR139 [2]; [10])	Efficiency Ligand (GPR139 [2]; [11])	EC50 (GPR139 [2]; [12]) [nM]	Efficiency Ligand (GPR139 [2]; GPR139 Agonist Activity)	Hill Slope (GPR139 [2]; GPR139 Agonist Activity)	Lipophilic Efficiency (logD) (GPR139 [2]; GPR139 Agonist Activity)	Lipophilic Efficiency (logP) (GPR139 [2]; GPR139 Agonist Activity)	EC50 (GPR139 [2]; [13]) [nM]	SMILES	Averaged Max % Response (±St. Dev.) (parental HEK cells [4]; HEK Agonist Activity section) [%]	EC50 (parental HEK cells [4]; [7]) [nM]	also measured
		133.92 ± 16.41	3.47	3.47	0.09	0.37	19.6						CC(C)C(CC(=O)Cc1cccc2ccccc12)C(=O)Nc1cccc(C#N)c1 (centres unmarked) [SR-05000022531]			Lipophilic Efficiency (logD) (parental HEK cells [4]; HEK Agonist Activity): 0.61; Lipophilic Efficiency (logP) (parental HEK cells [4]; HEK Agonist Activity): 0.61; Averaged Max % Response (±St. Dev.) (parental HEK cells [4]; HEK Agonist Activity): 1.20 ± 11.04%; EC50 (parental HEK cells [4]; [15]): > 14100 nM
1.43	−0.025	135.48 ± 20.60						0.31	0.53	2.32	0.87	1800	Cc1ccccc1CN1CCC(O)(c2ccc(Cl)c(C(F)(F)F)c2)CC1 [SR-05000022582]	0.58 ± 18.59		EC50 (parental HEK cells [4]; [14]): > 14100 nM
		99.08 ± 8.57	6.97	6.95	0.79	0.24	13.8						CC(C)C1CC(=O)[C@@H]2C[C@@H](CC2C(=O)CC2CCOc3ccccc3C2)C2C=CC(=C2)CCC(=O)[C@@H](Cc2ccccc2)NC1=O (some centres unmarked) [SR-05000709044]			Lipophilic Efficiency (logD) (parental HEK cells [4]; HEK Agonist Activity): 3.96; Lipophilic Efficiency (logP) (parental HEK cells [4]; HEK Agonist Activity): 3.94; Averaged Max % Response (±St. Dev.) (parental HEK cells [4]; HEK Agonist Activity): −2.44 ± 4.17%; EC50 (parental HEK cells [4]; HEK Agonist Activity, parental non-transfected HEK cells): > 14100 nM
−0.064	−0.064	88.97 ± 19.06	1.77	1.77	0.76	0.35	205						Cc1cccc(NC(=S)NNC(=O)CSCc2cccc3ccccc23)c1 [SR-07000002775]	2.05 ± 12.71	> 14100	
−0.610	−0.614	87.84 ± 4.08						0.39	0.44	0.98	0.98	358	CC(C)(C)c1cn2cccc(OCc3ccc(Cl)c(Cl)c3)c2n1 [SR-07000004609]	−5.59 ± 4.81	> 14100	
